Experimental data taken from the supplement of paper PMC11061612.

How the values were obtained:
SIMA (Neuroblastoma) [1] = test: Bliss excess, mean over the matrix (fraction); higher = more synergy
Summary of the method: (§1)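 Cell lines in DMEM/F12 or RPMI with 10% FBS were plated in 1536-well plates, held 24 hours at 37°C, 5% CO2, then given two-drug dose matrices for 72 hours (DMSO typically 0.2%). Viability was read by CellTiter-Glo 2.0 luminescence and scaled as inhibition from 0 (vehicle wells) to 1 (blank wells). Combination Emax is the second-highest inhibition in the matrix; Bliss excess is observed combination effect minus expected EA + EB − EA·EB, EA and EB being single-agent effects.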

RH-18 (Rhabdomyosarcoma) [2] = test: as above
Summary of the method: as §1

[3] = tested on: MDA-MB-468 (Breast Carcinoma); test: combination Emax (second highest fraction inhibited in the dose matrix, 72 h); higher = more inhibition; extreme values may be limits of the assay
Summary of the method: as §1

SIMA (Neuroblastoma) [4] = test: as above
Summary of the method: as §1

HMV-II (Melanoma) = test: as above
Summary of the method: as §1

[5] = tested on: SW626 (Colorectal Carcinoma); test: as above
Summary of the method: as §1

[6] = tested on: OC-314 (Ovarian Carcinoma); test: as above
Summary of the method: as §1

[7] = tested on: RKO (Colorectal Carcinoma); test: as above
Summary of the method: as §1

NCI-H28 (Mesothelioma) = test: as above
Summary of the method: as §1

[8] = tested on: CAL-51 (Breast Carcinoma); test: as above
Summary of the method: as §1

RH-18 (Rhabdomyosarcoma) [9] = test: as above
Summary of the method: as §1

[10] = tested on: CAL-54 (Kidney Carcinoma); test: as above
Summary of the method: as §1
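Throughout, for Bliss excess, mean over the matrix: after 72 h of two-drug dosing.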

Row | SMILES | Bliss excess (SIMA (Neuroblastoma) [1]) | Bliss excess (RH-18 (Rhabdomyosarcoma) [2]) | combination Emax [3] | combination Emax (SIMA (Neuroblastoma) [4]) | combination Emax (HMV-II (Melanoma)) | combination Emax [5] | combination Emax [6] | combination Emax [7] | combination Emax (NCI-H28 (Mesothelioma)) | combination Emax [8] | combination Emax (RH-18 (Rhabdomyosarcoma) [9]) | combination Emax [10]
1 | COc1cccc(OCCCN)c1-c1cc(Nc2cnc(C#N)cn2)n[nH]1 [Prexasertib] + CN(C)CCCOc1ccc(-c2ccc3ncc4c(c3c2)n(C2CCOCC2)c(=O)n4C)cn1 [AZD0156] (first compound max 1 µM, 7x7, partner max 1 µM) | 0.0111 | -0.0006 | 0.492 | 1 | 0.517 | 0.707 | 0.962 | 0.891 | 0.626 | 0.946 | 0.426 | 0.863
2 | COc1cccc(OCCCN)c1-c1cc(Nc2cnc(C#N)cn2)n[nH]1 [Prexasertib] + C[C@@H]1COCCN1C2=NC(=NC(=C2)C3(CC3)[S@](=N)(=O)C)C4=C5C=CNC5=NC=C4 [AZD6738] (first compound max 1 µM, 7x7, partner max 10 µM) | -0.0198 | 0.076 | 0.547 | 0.989 | 0.565 | 0.743 | 0.934 | 0.946 | 0.592 | 0.929 | 0.475 | 0.84
3 | COc1cccc(OCCCN)c1-c1cc(Nc2cnc(C#N)cn2)n[nH]1 [Prexasertib] + Cc1cc2ncnn2cc1Nc1ncc2c(n1)n(C1CCOCC1)c(=O)n2C [AZD7648] (first compound max 1 µM, 7x7, partner max 10 µM) | -0.035 | 0.0455 | 0.533 | 0.992 | 0.525 | 0.75 | 0.946 | 0.901 | 0.639 | 0.916 | 0.382 | 0.821
4 | COc1cccc(OCCCN)c1-c1cc(Nc2cnc(C#N)cn2)n[nH]1 [Prexasertib] + O=C(c1cc(Cc2n[nH]c(=O)c3ccccc23)ccc1F)N1CCN(C(=O)C2CC2)CC1 [Olaparib] (first compound max 1 µM, 7x7, partner max 10 µM) | -0.0728 | -0.0295 | 0.603 | 0.97 | 0.533 | 0.64 | 0.971 | 0.874 | 0.597 | 0.86 | 0.327 | 0.792
5 | COc1cc2c(cc1OCCCCCOc1cc3c(cc1OC)C(=O)N1C=C(C)C[C@H]1C=N3)N=C[C@@H]1CC(C)=CN1C2=O [SG3199] + O=C(c1cc(Cc2n[nH]c(=O)c3ccccc23)ccc1F)N1CCN(C(=O)C2CC2)CC1 [Olaparib] (first compound max 0.001 µM, 7x7, partner max 10 µM) | -0.0214 | -0.0378 | 0.231 | 0.421 | 0.118 | 0.102 | 0.205 | 0.114 | 0.0051 | 0.202 | 0.174 | 0.121
6 | CCc1c2c(nc3ccc(O)cc13)-c1cc3c(c(=O)n1C2)COC(=O)[C@]3(O)CC [SN-38] + CN(C)CCCOc1ccc(-c2ccc3ncc4c(c3c2)n(C2CCOCC2)c(=O)n4C)cn1 [AZD0156] (first compound max 0.3 µM, 7x7, partner max 1 µM) | -0.0753 | -0.0477 | 0.735 | 0.907 | 0.587 | 0.428 | 1 | 0.91 | 0.307 | 0.728 | 0.459 | 0.925
